The values below are quoted from earlier work in patent publication US10213411B2, “Use of prodrugs of fumarates in treating heart failure diseases” (priority 2015, dated 2019).

The conditions of data set [1]: healthy subjects, compared by MMF plasma levels.
Data set [2] concerns central nervous system (CNS) inflammation. Conditions: preclinical.
Data set [3] has the same test system. Conditions: preclinical. The source holds these as a separate data set.
For data set [4], the system named is astrogliosis and microglial activations.

Structures can show the parent of a compound that is named as a salt.

As for `COC(=O)/C=C/C(=O)OCCN1C(=O)CCC1=O` [ALKS 8700], the “dose comparable to 240 mg DMF (Tecfidera) by plasma levels of MMF” value in data set [1] is 420 mg.
On to `COC(=O)/C=C/C(=O)OC` [DMF, Dimethyl fumarate], for which, in data set [2], the “CNS inflammation in murine EAE” value was “inhibit central nervous system (CNS) inflammation”. Moreover, in data set [3], the “CNS inflammation in rat EAE” value was “inhibit central nervous system (CNS) inflammation”. Further, the “astrogliosis and microglial activations associated with EAE” value in data set [4] is “inhibit astrogliosis and microglial activations”.
